“Also recorded” adds a separate entry of the source.
Assays:
[1] = system: primed lymph node cells (PLNC); experiment: T cell proliferation assay, PLNC from peptide-immunised rats; format: cell-based, Lewis rats; settings: in vitro peptide 20 µg/ml
Description: (§1) Immunisations with synthetic peptides and primed lymph node populations: Rats were immunised with 50 µg of synthetic peptide in PBS/DDA in each hind footpad (i.e. 50 µg/footpad, 100 µg/rat). Ten days later, draining popliteal lymph nodes were removed, disaggregated, washed three times and used as a source of primed lymph node cells (PLNC). In some experiments, PLNC were derived as pooled inguinal and popliteal lymph nodes from AA rats 35-42 days post Mt immunisation.
(§2) T cell proliferation assays: PLNC were cultured in triplicate in 200 µl flat bottom microtitre wells (Costar) at 2 x 10^5 cells per well with or without antigen. In initial experiments PLNC were tested for responsiveness to individual peptides at concentrations of 5 and 20 µg/ml, and Mt, hsp65 and PPD over a range of concentrations. Concanavalin A (2 µg/ml) was used as a positive control for T cell proliferation. Cultures were incubated for 96 h at 37°C in a humidified atmosphere of 5% CO2. Cultures were pulsed for the final 16 h with [^3H] TdR (Amersham, U.K., 1 uCi/well) and TdR uptake measured using a liquid scintillation β counter. Assays using T cell lines were performed as above using 2 x 10^4 line cells per well with irradiated (30 Gy) syngeneic accessory cells (either 3 x 10^5 splenocytes/well or 10^6 thymocytes/well). Results are expressed as mean counts per minute (cpm) of triplicate cultures. In experiments where responses to Ag were low, responses were considered significant if the stimulation index (S.I. = mean cpm with Ag - mean cpm without Ag) was greater than two and Student's t tests gave p < 0.01.
To determine whether immunisation of rats with synthetic peptides was effective at priming for T cell reactivity to hsp65 epitopes, in vitro proliferative responses following immunisation with 100 µg of peptide each containing individual T cell epitopes were examined. PLNC isolated ten days after immunisation were tested for response to the immunising peptide, overlapping peptides and to hsp65 (Table II). PLNC responses were observed after immunisation with seven of the nine peptides. Responses were not seen after immunisation with peptides 386-400 and 511-525.
(§3) T cell responses by immunisation with hsp65 peptides. Rats were immunised with synthetic peptides containing individual hsp65 epitopes (100 µg peptide/DDA per rat). Ten days later PLNC were isolated and tested for responses to overlapping peptides (20 µg/ml). Peptide-specific T cell lines were generated by bulk in vitro stimulation of PLNC with immunising peptide. Lines were tested for responses to overlapping peptides (10 µg/ml). […] Results are expressed as mean cpm of triplicate cultures. All SEM were less than 20%.

[2] = system: Peptide-specific T cell lines; experiment: T cell proliferation assay, peptide-specific T cell lines from peptide-immunised rats; format: cell-based, Lewis rats; settings: for CPM T Cell Line: in vitro peptide 10 µg/ml
Description: as §2
T cell lines: T cell lines with specificity for mycobacterial hsp65 or peptides were generated by bulk stimulation of either hsp65-PLNC or Mt-PLNC. PLNC were cultured at 5 x 10^6/ml in culture medium supplemented with 2% normal rat serum (NRS) in the presence of 10 µg/ml Ag. After three days viable cells were harvested using a ficoll-isopaque gradient and cultured for a further four days in culture medium + 5% FCS and 5% TCGF (Con A-activated rat spleen supernatant). Seven days after initial stimulation lines were restimulated with irradiated spleen accessory cells and 10 µg/ml Ag in culture medium + NRS. Lines were maintained ir. this seven day restimulation cycle. Short term epitope-specific T cell lines were also generated from rats immunised with synthetic peptides. Peptide-PLNC were cultured as above in the presence of 10 µg/ml peptide.
Bulk stimulation generated T cell lines to eight of the nine peptides tested. These eight lines were tested for specificity after four in vitro restimulations (Table II). All responded to the immunising peptide and, to some extent, to hsp65.
as §3

hsp65-PLNC = experiment: T cell proliferation assay, hsp65-PLNC; format: cell-based, Lewis rats; settings: PLNC from hsp65-immunised rats; peptides 5 and 20 µg/ml
Description: Immunisations and primed lymph node populations: Rats were immunised with either Mt or hsp65. Mt was suspended at 5 mg/ml in IFA or DDA and 100 µl injected in each hind footpad (i.e. 500 µg/footpad, 1 mg/rat). Hsp65 (1 mg/ml in PBS) was mixed 1:1 with DDA and 100 µl injected (i.e. 50 µg/footpad, 100 µg/rat). Ten to 21 days later, draining popliteal lymph nodes were removed, disaggregated, washed three times and used as a source of primed lymph node cells (PLNC). In control experiments splenocytes and lymph nodes from unimmunised rats and PLNC from rats immunised with IFA or DDA/PBS alone were used.
as §2
Hsp65-PLNC were analysed for responsiveness to a panel of peptides covering the entire sequence of hsp65 (Fig. 3a). […] In terms of magnitude of response, three regions of the molecule (residues 176-190, 211-230 and 221-240) appeared to contain the "dominant" T cell epitopes, while regions 86-100. 251-270, 396-410 and 506-525 contained "subdominant" or minor epitopes.

adjuvant arthritis = experiment: Adjuvant arthritis (AA) induced with Mt in IFA, clinical arthritis score; format: in vivo, Lewis rats
Description: (§4) Induction and clinical assessment of experimental arthritis: Arthritis was induced by a single intradermal injection in the base of the tail. AA was induced with 0.5 mg Mt suspended in 100 µl IFA. CP20961 arthritis was induced with 2 mg CP20961 in 100 µl light mineral oil (Sigma). Rats were examined daily for clinical signs of arthritis. Severity of arthritis was assessed by scoring each paw from zero to four based on degree of swelling, erythema and deformity of the joints. Thus the maximum possible arthritis score was 16.
(§5) Modulation of arthritis with hsp65 peptides and epitope-specific T cell lines: Synthetic peptides corresponding to eight T cell epitopes present in mycobacterial hsp65 were tested for protective effects on arthritis development. Rats were immunised with 100 µg of individual peptide seven days prior to arthritis induction. Peptides were immunised in each hind footpad in 10 mg/ml DDA (50 µl/pad). Control rats received only PBS/DDA. Epitope-specific T cell lines were also tested for protective activity by intravenous administration of lines at the time of arthritis induction. T cell lines were restimulated in vitro with irradiated spleen APC and specific peptide. Four days later T cell blasts were harvested by ficoll gradient, washed and applied to a second ficoll gradient to remove any contaminating APC. T cells were washed twice in wash medium and twice in PBS and finally suspended at 2.5x10^7/ml in PBS. Immediately prior to injection of Mt, 200 µl (i.e. 5x10^6) T cells were injected i.v. in the tail vein.
The effects of preimmunisation with synthetic peptides containing individual epitopes on the development of AA were analysed (Fig. 7). The eight peptides which primed for epitope specific T cells were tested. Rats were immunised with 100 µg of peptide 7 days prior to AA-induction with Mt.

T cell = T cell proliferative responses in humans (initial testing); format: cell-based; settings: some autoimmune disease patients
Description: Thus, already the rat-defined T cell epitopes themselves could be used for therapeutical intervention in some individuals (certain HLA types).

[3] = system: CP20961-induced arthritis; experiment: CP20961-induced arthritis, clinical arthritis score; format: in vivo, Lewis rats; settings: 100 µg peptide in DDA 7 days prior to 2 mg CP20961 in 100 µl mineral oil i.d.
Description: as §4
as §5, with “T cells were washed twice in wash medium and twice in PBS and finally suspended at 2.5x10^7/ml in PBS. Immediately prior to injection of Mt, 200 µl (i.e. 5x10^6) T cells were injected i.v. in the tail vein.” left out

[4] = system: PLNC from preimmunised rats; experiment: T cell proliferation assay, PLNC of peptide-preimmunised AA rats 42 days after Mt; format: cell-based, Lewis rats; settings: rats preimmunised with the same peptide; peptide 20µg/ml
Description: as §1, §2
PLNC from preimmunised rats were tested for responsiveness to hsp65 epitopes 42 days after Mt administration (Fig. 8). […] Responses to peptide 176-190 containing the AA-associated epitope were found in all PLNC populations (and enhanced after 176-190 preimmunisation) with one exception.

[5] = system: T cell lines generated from hsp65-immunised rats; experiment: T cell proliferation assay, epitope-specific T cell lines generated from hsp65-immunised rats; format: cell-based, Lewis rats; settings: Line H.52
Description: as §2, with “In experiments where responses to Ag were low, responses were considered significant if the stimulation index (S.I. = mean cpm with Ag - mean cpm without Ag) was greater than two and Student's t tests gave p < 0.01.” left out
T cell lines were generated by restimulation of hsp65-PLNC with individual synthetic peptides. For epitopes where responses had been detected to two overlapping peptides, the line was generated using the peptide that induced strongest proliferation of hsp65-PLNC (e.g. for epitope 216-225, peptide 211-225 was used). […]

[6] = 100 µg peptide in DDA, hind footpads, 7 days prior to AA induction with Mt

For “peptide 86-100: synthetic 15mer, sequence 86-100 of SEQ ID No.1 (mycobacterial hsp65) (DGTTTATVLAQALVR; UniProt P9WPE7 86-100, looked up, fragment)”, the “CPM PLNC” value ([1]; PLNC 10 days after immunisation with peptide 86-100 (100 µg/DDA), mean of triplicates) was 57925 cpm, the “CPM T Cell Line” value ([2]; T cell line from 86-100-immunised PLNC) was 49422 cpm and the “hsp65-PLNC proliferative response to peptide” value (hsp65-PLNC) was “subdominant”. The “protection against AA development after peptide preimmunisation” value (“protection against AA development” for short) (adjuvant arthritis; [6]) was “moderate protection; also recorded: moderate effect” and the “T cell proliferative responses in autoimmune disease patients” value (T cell) was “capable of inducing T cell proliferative responses”.

“peptide 211-225: synthetic 15mer, residues 211-225 of mycobacterial hsp65; control peptide in arthritis models” was tested, and the “CPM PLNC” value ([1]; PLNC 10 days after immunisation with peptide 211-225 (100 µg/DDA)) was 39765 cpm, the “CPM T Cell Line” value ([2]; T cell line from 211-225-immunised PLNC) was 121978 cpm and the “protection against AA development” value (adjuvant arthritis; [6]) was “did not influence AA development”. For the same substance, the “protection against CP20961-induced arthritis after peptide preimmunisation” value [3] was “did not” and the “PLNC response to the immunising peptide 42 days after Mt administration” value [4] was “strong responses”.

With “peptide 256-270: synthetic 15mer, sequence 256-270 of SEQ ID No.1 (mycobacterial hsp65)” the “CPM PLNC” value ([1]; PLNC 10 days after immunisation with peptide 256-270 (100 µg/DDA)) was 16423 cpm, the “CPM T Cell Line” value ([2]; T cell line from 256-270-immunised PLNC) was 69037 cpm and the “response of the line generated against M.256-270 (line P.m52)” value ([2]; irradiated syngeneic spleen APC) was “responded”. The “level of proliferation relative to the rat peptide” value [5] was “five to ten fold higher”, the “protection against AA development” value (adjuvant arthritis; [6]) was “striking protective effect; also recorded: strong protection; also recorded: clear protective effects” and the “mean maximum arthritis score” value (adjuvant arthritis; 100 µg peptide in DDA, hind footpads, 7 days prior to AA induction with Mt, 24 rats in five experiments, maximum possible score 16) was 1.7. The “protection against AA development” value (adjuvant arthritis; 100 µg peptide in DDA, hind footpads, 7 days prior to AA induction with Mt, listed as hsp65 256-270) was “Protection was observed”, the “rats that developed clinical signs of arthritis” value (adjuvant arthritis; of the 24 rats preimmunised with peptide, signs milder than in control rats) was “twelve” and the permanent joint deformities (adjuvant arthritis; preimmunised rats that developed AA) was “remarkably free of permanent deformities”. For the same substance, the “protection against CP20961-induced arthritis after peptide preimmunisation” value [3] was “strongly protected”, the “PLNC response to the immunising peptide 42 days after Mt administration” value [4] was “marginal PLNC responses” and the “T cell proliferative responses in autoimmune disease patients” value (T cell) was “capable of inducing T cell proliferative responses”.

Source: EP0751957B1, “PEPTIDE FRAGMENTS OF MICROBIAL STRESS PROTEINS AND PHARMACEUTICAL COMPOSITION MADE THEREOF FOR THE TREATMENT AND PREVENTION OF INFLAMMATORY DISEASES” (priority 1994, dated 2004)
